In publication PMC3138527 (2011):

How the values were obtained:
Type in all cases: biochemical
[1] = molecular target: T1, triosephosphate isomerase (Tbb TIM) (Trypanosoma brucei, UniProt P04789); assay: 1H NMR turnover in D2O
[2] = molecular target: T1, triosephosphate isomerase (Tbb TIM); assay: activation of the TIM-catalyzed reaction of [[…]-13C]-GA in D2O followed by 1H NMR
[3] = molecular target: T1, triosephosphate isomerase (Tbb TIM); assay: coupled enzyme assay

T1 sequence (P04789 whole entry): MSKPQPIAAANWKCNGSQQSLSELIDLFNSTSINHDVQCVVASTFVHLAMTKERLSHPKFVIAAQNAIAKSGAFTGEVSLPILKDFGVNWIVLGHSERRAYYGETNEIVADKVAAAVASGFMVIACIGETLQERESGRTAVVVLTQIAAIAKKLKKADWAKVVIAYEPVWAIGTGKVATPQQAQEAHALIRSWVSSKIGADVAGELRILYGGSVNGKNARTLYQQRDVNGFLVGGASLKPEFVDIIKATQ

O=CCO [[1-^13C]-GA, glycolaldehyde]
1H NMR turnover in D2O; kcat/Km with saturating phosphite [1]: 64 ± 6 M⁻¹ s⁻¹

O=[PH](O)O [phosphite dianion]
Kd [2]: 19 ± 3 mM

O=C[C@H](O)COP(=O)(O)O [GAP, (R)-glyceraldehyde 3-phosphate]
Km [3]: 250 µM
